The text below walks through data of patent publication EP3925956B1, “1H-INDAZOLE-3-CARBOXAMIDE DERIVATIVES AND RELATED COMPOUNDS AS FACTOR D INHIBITORS FOR TREATING DISEASES CHARACTERIZED BY ABERRANT COMPLEMENT SYSTEM ACTIVITY, SUCH AS E.G. IMMUNOLOGICAL DISORDERS” (BioCryst Pharmaceuticals, Inc., priority 2016, dated 2017).

Molecules are shown by their SMILES. pIC50: −log10 of the molar value.

This experiment deals with Factor D (Homo sapiens, UniProt P00746). As to the kind of experiment: Factor D esterolytic assay.
Chain of Factor D (P00746 26-253): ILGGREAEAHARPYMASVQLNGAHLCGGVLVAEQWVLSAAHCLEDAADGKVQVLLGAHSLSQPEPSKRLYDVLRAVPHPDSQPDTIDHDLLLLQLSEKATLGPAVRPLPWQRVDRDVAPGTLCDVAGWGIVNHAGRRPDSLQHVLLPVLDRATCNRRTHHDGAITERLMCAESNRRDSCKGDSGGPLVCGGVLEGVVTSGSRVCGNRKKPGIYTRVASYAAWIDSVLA
`CC(C)(C)OC(=O)N[C@H]1C[C@H](CN(CC(=O)NCc2cccc(Cl)c2F)C(=O)Cn2nc(C(N)=O)c3ccccc32)C1` [161b, tert-butyl ((trans)-3-((2-(3-carbamoyl-1H-indazol-1-yl)-N-(2-((3-chloro-2-fluorobenzyl)amino)-2-oxoethyl)acetamido)methyl)cyclobutyl)carbamate] showed a pIC50 of 5.00 to 6.00.
With `COC(=O)c1ccc2c(c1)c(C(C)=O)nn2CC(=O)N(CC(=O)NCc1cccc(Cl)c1F)C1CC1` [227a, methyl 3-acetyl-1-(2-((2-((3-chloro-2-fluorobenzyl)amino)-2-oxoethyl)(cyclopropyl)amino)-2-oxoethyl)-1H-indazole-5-carboxylate] the figure was more than 6.00.
In the case of `NC(=O)c1nn(CC(=O)N(CC(=O)Nc2cccc(Br)n2)[C@H]2C[C@H](N)C2)c2ccccc12` [349d, 1-(2-(((trans)-3-aminocyclobutyl)(2-((6-bromopyridin-2-yl)amino)-2-oxoethyl)amino)-2-oxoethyl)-1H-indazole-3-carboxamide], the pIC50 is more than 6.00.
With `CC(C)(C)CC(=O)Nc1ccc2c(C(N)=O)nn(CC(=O)N(CC(=O)NCc3cccc(Cl)c3F)C3CC3)c2c1` [322b, 1-(2-((2-((3-chloro-2-fluorobenzyl)amino)-2-oxoethyl)(cyclopropyl)amino)-2-oxoethyl)-6-(3,3-dimethylbutanamido)-1H-indazole-3-carboxamide] the figure was more than 6.00; with `CC(C)(C)OC(=O)N[C@H]1C[C@@H](N(CC(=O)NCc2cccc(Cl)c2F)C(=O)Cn2nc(C(N)=O)c3ccccc32)C1` [152b, tert-butyl ((cis)-3-(2-(3-carbamoyl-1H-indazol-1-yl)-N-(2-((3-chloro-2-fluorobenzyl)amino)-2-oxoethyl)acetamido)cyclobutyl)carbamate], more than 6.00.
`N#Cc1cn(CC(=O)N(CC(=O)NCc2cccc(Cl)c2F)C2CC2)c2ccc(C(=O)NCc3ccccc3)cc12` [200i, N-benzyl-1-(2-((2-((3-chloro-2-fluorobenzyl)amino)-2-oxoethyl)(cyclopropyl)amino)-2-oxoethyl)-3-cyano-1H-indole-5-carboxamide] had a negative logarithm of the IC50 (pIC50) of 5.00 to 6.00.
`CC(=O)c1nn(CC(=O)N(CC(=O)NCc2cccc(Cl)c2F)[C@H]2C[C@H](O)C2)c2ccccc12` [183a, 2-(3-acetyl-1H-indazol-1-yl)-N-(2-((3-chloro-2-fluorobenzyl)amino)-2-oxoethyl)-N-(trans-3-hydroxycyclobutyl)acetamide]: the pIC50 was more than 6.00.
For `C[C@@H](O)[C@H](NC(=O)Cn1nc(C(N)=O)c2ccccc21)C(=O)NCc1cccc(Cl)c1F` [34d, 1-(2-(((2S,3R)-1-((3-chloro-2-fluorobenzyl)amino)-3-hydroxy-1-oxobutan-2-yl)amino)-2-oxoethyl)-1H-indazole-3-carboxamide], the pIC50 was less than 5.00.
Regarding `NC(=O)c1nn(CC(=O)N(CC(=O)NCc2cccc(Cl)c2F)[C@H]2C[C@H](O)C2)c2ccccc12` [110b, 1-(2-((2-((3-chloro-2-fluorobenzyl)amino)-2-oxoethyl)((trans)-3-hydroxycyclobutyl)amino)-2-oxoethyl)-1H-indazole-3-carboxamide], the negative logarithm of the IC50 (pIC50) is more than 6.00.
With `NC(=O)c1nn(CC(=O)N(CC(=O)NCc2cccc(Cl)c2F)[C@H]2C[C@@H](N)C2)c2ccccc12` [153a, 1-(2-(((cis)-3-aminocyclobutyl)(2-((3-chloro-2-fluorobenzyl)amino)-2-oxoethyl)amino)-2-oxoethyl)-1H-indazole-3-carboxamide] the figure was more than 6.00; with `NC(=O)c1nn(CC(=O)N(CC(=O)NCc2cccc(Cl)c2F)C[C@H]2C[C@H](N)C2)c2ccccc12` [161c, 1-(2-((((trans)-3-aminocyclobutyl)methyl)(2-((3-chloro-2-fluorobenzyl)amino)-2-oxoethyl)amino)-2-oxoethyl)-1H-indazole-3-carboxamide], more than 6.00.
`C[C@H](CO)N(CC(=O)NCc1cccc(Cl)c1F)C(=O)Cn1nc(C(N)=O)c2cc(NC(=O)OC(C)(C)C)ccc21` [345e, (R)-tert-butyl (3-carbamoyl-1-(2-((2-((3-chloro-2-fluorobenzyl)amino)-2-oxoethyl)(1-hydroxypropan-2-yl)amino)-2-oxoethyl)-1H-indazol-5-yl)carbamate] showed a pIC50 of more than 6.00.
In turn, `NC(=O)c1nn(CC(=O)N(CC(=O)NCc2cccc(Cl)c2F)C2CC2)c2ncc(N)cc12` [326b, 5-amino-1-(2-((2-((3-chloro-2-fluorobenzyl)amino)-2-oxoethyl)(cyclopropyl)amino)-2-oxoethyl)-1H-pyrazolo[3,4-b]pyridine-3-carboxamide] showed a negative logarithm of the IC50 (pIC50) of 5.00 to 6.00.
With `NC(=O)c1nn(CC(=O)N(CC(=O)NCc2cccc(Cl)c2F)[C@H]2C[C@@H](CO)C2)c2ccccc12` [210b, 1-(2-((2-((3-chloro-2-fluorobenzyl)amino)-2-oxoethyl)((cis)-3-(hydroxymethyl)cyclobutyl)amino)-2-oxoethyl)-1H-indazole-3-carboxamide] the figure was more than 6.00; with `CN(C)CC[C@H](N)c1cccc(Cl)c1F` [358f, (S)-1-(3-chloro-2-fluorophenyl)-N3,N3-dimethylpropane-1,3-diamine], 5.00 to 6.00; with `NC(=O)c1nn(CC(=O)N(CC(=O)NCc2cccc(Cl)c2F)[C@H]2C[C@H](N)C2)c2ccc(N)cc12` [351b, 5-amino-1-(2-(((trans)-3-aminocyclobutyl)(2-((3-chloro-2-fluorobenzyl)amino)-2-oxoethyl)amino)-2-oxoethyl)-1H-indazole-3-carboxamide], more than 6.00.
The value for `Nc1ncnc2c1cnn2CC(=O)N(CC(=O)NCc1cccc(Cl)c1F)C1CC1` [68a, 2-(4-amino-1H-pyrazolo[3,4-d]pyrimidin-1-yl)-N-(2-((3-chloro-2-fluorobenzyl)amino)-2-oxoethyl)-N-cyclopropylacetamide] was 5.00 to 6.00; that for `NC(=O)c1nn(CC(=O)N(CC(=O)NCc2cccc(Cl)c2F)[C@H]2C[C@H](N)C2)c2ccccc12` [169c, 1-(2-(((trans)-3-aminocyclobutyl)(2-((3-chloro-2-fluorobenzyl)amino)-2-oxoethyl)amino)-2-oxoethyl)-1H-indazole-3-carboxamide] was more than 6.00; that for `NC(=O)c1nn(CC(=O)N(CC(=O)Nc2cncc(Br)n2)[C@H]2C[C@H](N)C2)c2ccccc12` [350c, 1-(2-(((trans)-3-aminocyclobutyl)(2-((6-bromopyrazin-2-yl)amino)-2-oxoethyl)amino)-2-oxoethyl)-1H-indazole-3-carboxamide] was more than 6.00.
With `NC(=O)c1nn(CC(=O)N(CC(=O)NCc2cccc(Cl)c2F)[C@H]2C[C@@H](O)C2)c2ccccc12` [104b, 1-(2-((2-((3-chloro-2-fluorobenzyl)amino)-2-oxoethyl)((cis)-3-hydroxycyclobutyl)amino)-2-oxoethyl)-1H-indazole-3-carboxamide] the figure was more than 6.00; with `CC(=O)c1nn(CC(=O)N(CC(=O)NCc2cccc(Cl)c2F)[C@H]2C[C@H](O)C2)c2ccc(Nc3cncnc3)cc12` [182a, 2-(3-acetyl-5-(pyrimidin-5-ylamino)-1H-indazol-1-yl)-N-(2-((3-chloro-2-fluorobenzyl)amino)-2-oxoethyl)-N-(trans-3-hydroxycyclobutyl)acetamide], more than 6.00.

As a reminder, the pIC50 is the IC50 on a negative log10 scale, so that one unit is a factor of ten.
